Results on seven compounds are retold here after patent US8802597B2, “Herbicidal pyrimidines” (E I du Pont de Nemours and Company, priority 2003, dated 2014).

Read-outs that look alike come from different tables or passages of the source.

Common to all, as to test: Test C pre/postemergence
Assay type in all cases: in vivo

Experiment [1] relates to velvetleaf (Abutilon theophrasti). The method in brief: (§1)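 Applications: preemergence onto seeded soil and postemergence onto 1- to 4-leaf seedlings, compound carried in non-phytotoxic solvent plus surfactant. Kept in greenhouse 12 to 14 days. Scored visually relative to untreated controls, 0 (no effect) to 100 (complete control).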
For experiment [2], the system named is yellow nutsedge (Cyperus esculentus). As to conditions: for pest or weed control at 16 g/ha / pest or weed control at 31 g/ha / pest or weed control at 62 g/ha / pest or weed control at 125 g/ha / pest or weed control at 250 g/ha: Cyperus; for pest or weed control at 16 g/ha: 16 g ai/ha. In a few lines:
as §1

For experiment [3], the system named is eastern black nightshade (Solanum ptycanthum). As to conditions: Preemergence. In a few lines:
as §1

Where [4] appears, read: Abutilon theophrasti, post-emergence, Postemergence, 31 g ai/ha, read-out: Plant response rating (scale of 0 to 100), Velvetleaf.
Where [5] appears, read: Abutilon theophrasti, post-emergence, Postemergence, 125 g ai/ha, scale 0 to 100 (0 no effect, 100 complete control), read-out: Velvetleaf plant response rating.
The mark [6] stands for this setting: Preemergence, 31 g ai/ha, scale 0 to 100, 0 no effect, 100 complete control.
Where [7] appears, read: Preemergence, 62 g ai/ha, scale 0 to 100, 0 no effect, 100 complete control.
The mark [8] stands for this setting: post-emergence, Postemergence, 31 g ai/ha, read-out: Plant response rating (scale of 0 to 100), Nutsedge, Yellow.
Setting [9] is: post-emergence, Postemergence, 125 g ai/ha, scale 0 to 100 (0 no effect, 100 complete control), read-out: Nutsedge, Yellow plant response rating.
The mark [10] stands for this setting: 31 g ai/ha, scale 0 to 100, 0 no effect, 100 complete control.
The mark [11] stands for this setting: 62 g ai/ha, scale 0 to 100, 0 no effect, 100 complete control.
Where [12] appears, read: Preemergence, 125 g ai/ha, scale 0 to 100.
The mark [13] stands for this setting: Preemergence, 250 g ai/ha, scale 0 to 100.
[14] abbreviates: Preemergence, 500 g ai/ha, scale 0 to 100.
The mark [15] stands for this setting: Postemergence, 62 g ai/ha, scale 0 to 100 (0 no effect, 100 complete control).
Setting [16] is: Postemergence, 125 g ai/ha, scale 0 to 100 (0 no effect, 100 complete control).
The mark [17] stands for this setting: Postemergence, 250 g ai/ha, scale 0 to 100.
The mark [18] stands for this setting: Postemergence, 500 g ai/ha, scale 0 to 100.

Turning to `Nc1nc(C2CC2)nc(C(=O)O)c1Cl` [Compound 135, 6-amino-5-chloro-2-cyclopropyl-4-pyrimidinecarboxylic acid], the pest or weed control at 16 g/ha in experiment [1] (Abutilon theophrasti, post-emergence, Postemergence, 16 g ai/ha, read-out: Plant response rating (scale of 0 to 100), Velvetleaf) was 55%; in experiment [2] (post-emergence, Postemergence, read-out: Plant response rating (scale of 0 to 100), Nutsedge, Yellow), 0%; in experiment [2] (pre-emergence, Preemergence, scale 0 to 100, 0 no effect, 100 complete control, read-out: Plant response rating, Nutsedge, Yellow), 0%; in experiment [3] (Solanum, pre-emergence, 16 g ai/ha, scale 0 to 100, 0 no effect, 100 complete control, read-out: Plant response rating, Nightshade), 0%. Besides, the pest or weed control at 31 g/ha came out at 90% in experiment [1] (setting [4]) and 0% in experiment [2] (setting [8]). The pest or weed control at 125 g/ha turned out to be 95% in experiment [1] (setting [5]) and 40% in experiment [2] (setting [9]). Moreover, the “Plant response rating, Velvetleaf” value in experiment [1] (Preemergence, 16 g ai/ha, scale 0 to 100, 0 no effect, 100 complete control) was found to be 60; in experiment [1] (setting [6]), 85; in experiment [1] (setting [7]), 90. The pest or weed control at 62 g/ha in experiment [2] (post-emergence, Postemergence, 62 g ai/ha, read-out: Plant response rating (scale of 0 to 100), Nutsedge, Yellow) came to 15%. Besides, the “Plant response rating, Nutsedge, Yellow” value in experiment [2] (setting [6]) and in experiment [2] (setting [7]) was 0 throughout. The “Plant response rating, Nightshade” value is 30 in experiment [3] (setting [10]); 35 in experiment [3] (setting [11]); 50 in experiment [3] (scale 0 to 100, 0 no effect, 100 complete control).

In the case of `CCOC(=O)c1nc(C2CC2)nc(N=CN(C)C)c1Br` [Compound 40], the “Plant response rating, Velvetleaf” value in experiment [1] (setting [7]) was 0; in experiment [1] (setting [12]), 70; in experiment [1] (setting [13]), 90; in experiment [1] (setting [14]), 100. Moreover, the “Plant response rating, Nutsedge, Yellow” value in experiment [2] (setting [7]), in experiment [2] (setting [12]), in experiment [2] (setting [13]) and in experiment [2] (setting [14]) was 0 in each case. Also, the “Plant response rating, Nightshade” value in experiment [3] (setting [11]) is reported as 100; in experiment [3] (125 g ai/ha, scale 0 to 100) it was 100; in experiment [3] (250 g ai/ha, scale 0 to 100) it was 100; in experiment [3] (500 g ai/ha, scale 0 to 100), 100.

Regarding `CC(C)COC(=O)c1nc(C2CC2)nc(N)c1Br` [Compound 17], the “Plant response rating (scale of 0 to 100), Velvetleaf” value in experiment [1] (Postemergence, 31 g ai/ha) is reported as 25. Also, the “Velvetleaf plant response rating” value in experiment [1] (setting [15]) amounted to 50; in experiment [1] (setting [16]), 80. Further, the “Plant response rating, Velvetleaf” value was found to be 95 in experiment [1] (setting [17]); 20 in experiment [1] (setting [6]); 80 in experiment [1] (setting [7]); 100 in experiment [1] (setting [12]); 100 in experiment [1] (setting [13]). Besides, the “Plant response rating (scale of 0 to 100), Nutsedge, Yellow” value in experiment [2] (Postemergence, 31 g ai/ha) is on record as 0. Also, the “Nutsedge, Yellow plant response rating” value in experiment [2] (setting [15]) and in experiment [2] (setting [16]) was 0 each time. Also, the “Plant response rating, Nutsedge, Yellow” value in experiment [2] (setting [17]), in experiment [2] (setting [6]), in experiment [2] (setting [7]), in experiment [2] (setting [12]) and in experiment [2] (setting [13]) was 0 throughout. Besides, the “Plant response rating, Nightshade” value came to 80 in experiment [3] (setting [11]); 95 in experiment [3] (125 g ai/ha, scale 0 to 100); 100 in experiment [3] (250 g ai/ha, scale 0 to 100).

On to `COC(=O)c1nc(C2CC2C)nc(N)c1Br` (stereo not drawn) [Compound 28], for which the “Velvetleaf plant response rating” value in experiment [1] (setting [15]) stood at 45; in experiment [1] (setting [16]) it was 50. The “Plant response rating, Velvetleaf” value is 70 in experiment [1] (setting [17]); 75 in experiment [1] (setting [18]); 50 in experiment [1] (setting [7]); 55 in experiment [1] (setting [12]); 95 in experiment [1] (setting [13]); 100 in experiment [1] (setting [14]). Besides, the “Nutsedge, Yellow plant response rating” value in experiment [2] (setting [15]) and in experiment [2] (setting [16]) was 0 in each case. Besides, the “Plant response rating, Nutsedge, Yellow” value in experiment [2] (setting [17]), in experiment [2] (setting [18]), in experiment [2] (setting [7]), in experiment [2] (setting [12]), in experiment [2] (setting [13]) and in experiment [2] (setting [14]) was 0 each time. The “Plant response rating, Nightshade” value is given as 100 in experiment [3] (setting [11]); 100 in experiment [3] (125 g ai/ha, scale 0 to 100); 100 in experiment [3] (250 g ai/ha, scale 0 to 100); 100 in experiment [3] (500 g ai/ha, scale 0 to 100).

In the case of `CCOC(=O)c1nc(C2CC2)nc(N)c1F` [Compound 30], the pest or weed control at 31 g/ha came out at 10% in experiment [1] (setting [4]); 0% in experiment [1] (Abutilon theophrasti, pre-emergence, Preemergence, 31 g ai/ha, scale 0 to 100, 0 no effect, 100 complete control, read-out: Plant response rating, Velvetleaf); 0% in experiment [2] (setting [8]); 0% in experiment [2] (pre-emergence, Preemergence, 31 g ai/ha, scale 0 to 100, 0 no effect, 100 complete control, read-out: Plant response rating, Nutsedge, Yellow); 50% in experiment [3] (Solanum, pre-emergence, 31 g ai/ha, scale 0 to 100, 0 no effect, 100 complete control, read-out: Plant response rating, Nightshade). Further, the pest or weed control at 62 g/ha in experiment [1] (Abutilon theophrasti, post-emergence, Postemergence, 62 g ai/ha, scale 0 to 100 (0 no effect, 100 complete control), read-out: Velvetleaf plant response rating) came to 10%; in experiment [1] (Abutilon theophrasti, pre-emergence, Preemergence, 62 g ai/ha, scale 0 to 100, 0 no effect, 100 complete control, read-out: Plant response rating, Velvetleaf), 10%; in experiment [2] (post-emergence, Postemergence, 62 g ai/ha, scale 0 to 100 (0 no effect, 100 complete control), read-out: Nutsedge, Yellow plant response rating) it was 0%; in experiment [2] (pre-emergence, Preemergence, 62 g ai/ha, scale 0 to 100, 0 no effect, 100 complete control, read-out: Plant response rating, Nutsedge, Yellow) it was 0%; in experiment [3] (Solanum, pre-emergence, 62 g ai/ha, scale 0 to 100, 0 no effect, 100 complete control, read-out: Plant response rating, Nightshade), 80%. Further, the pest or weed control at 125 g/ha in experiment [1] (setting [5]) amounted to 60%; in experiment [1] (Abutilon theophrasti, pre-emergence, Preemergence, 125 g ai/ha, scale 0 to 100, read-out: Plant response rating, Velvetleaf), 15%; in experiment [2] (setting [9]) it was 0%; in experiment [2] (pre-emergence, Preemergence, 125 g ai/ha, scale 0 to 100, read-out: Plant response rating, Nutsedge, Yellow), 0%; in experiment [3] (Solanum, pre-emergence, 125 g ai/ha, scale 0 to 100, read-out: Plant response rating, Nightshade), 100%. Also, the pest or weed control at 250 g/ha amounted to 60% in experiment [1] (Abutilon theophrasti, post-emergence, Postemergence, 250 g ai/ha, scale 0 to 100, read-out: Plant response rating, Velvetleaf); 50% in experiment [1] (Abutilon theophrasti, pre-emergence, Preemergence, 250 g ai/ha, scale 0 to 100, read-out: Plant response rating, Velvetleaf); 5% in experiment [2] (post-emergence, Postemergence, 250 g ai/ha, scale 0 to 100, read-out: Plant response rating, Nutsedge, Yellow); 0% in experiment [2] (pre-emergence, Preemergence, 250 g ai/ha, scale 0 to 100, read-out: Plant response rating, Nutsedge, Yellow); 100% in experiment [3] (Solanum, pre-emergence, 250 g ai/ha, scale 0 to 100, read-out: Plant response rating, Nightshade).

In the case of `COC(=O)Cc1nc(C2CC2)nc(N)c1Br` [Compound 13], the “Plant response rating, Velvetleaf” value in experiment [1] (setting [6]) came to 60; in experiment [1] (setting [7]), 60; in experiment [1] (setting [12]), 80; in experiment [1] (setting [13]), 90. Also, the “Plant response rating, Nutsedge, Yellow” value in experiment [2] (setting [6]), in experiment [2] (setting [7]), in experiment [2] (setting [12]) and in experiment [2] (setting [13]) was 0 in each case. Further, the “Plant response rating, Nightshade” value in experiment [3] (setting [10]) is 0; in experiment [3] (setting [11]), 0; in experiment [3] (125 g ai/ha, scale 0 to 100) it was 90; in experiment [3] (250 g ai/ha, scale 0 to 100), 90.

As for `CCOC(=O)C(Cl)c1nc(C2CC2)nc(N)c1Br` (stereo not drawn) [Compound 31], the “Plant response rating, Velvetleaf” value in experiment [1] (setting [6]) stood at 0; in experiment [1] (setting [7]), 0; in experiment [1] (setting [12]), 0; in experiment [1] (setting [13]), 60. In addition, the “Plant response rating, Nutsedge, Yellow” value in experiment [2] (setting [6]), in experiment [2] (setting [7]), in experiment [2] (setting [12]) and in experiment [2] (setting [13]) was 0 throughout. The “Plant response rating, Nightshade” value in experiment [3] (setting [10]) came to 0; in experiment [3] (setting [11]), 0; in experiment [3] (125 g ai/ha, scale 0 to 100), 0.
